Series [1] has as its system HT29. Description: Potentiation assay with DNA damaging agents in HT29 cells. The series is classed as cell-based. The note with it: HT29 human colon cancer; gemcitabine; Example 4 at 4 μM. As for the experimental part: (§1) The following protocol was used:
(§2) (a) HT29 cells were seeded in 96-well plates at a concentration of 3000 cells per well and allowed to adhere overnight prior to addition of compound or vehicle control.
(§3) (b) SN38 was prepared from a 10 mM DMSO stock to give a final concentration range of 1 μM, 300 nM, 100 nM, 30 nM, 10 nM, 3 nM, 1 nM, and vehicle control.
(§4) (c) Test compounds were prepared from 10 mM DMSO stocks to typically give a final concentration range of 3 μM, 1 μM, 0.3 μM. 0.1 μM, 0.03 μM and vehicle control. The final DMSO content was 0.4%.
(§5) (d) Test compounds were incubated with the cells for 72 h at 37° C. 5% CO2 in a humidified atmosphere.
(§6) (e) Alamar blue 10% (v/v) was then added and incubated for a further 6 h, and fluorescent product detected using the BMG FLUOstar plate reader.
(§7) (f) Data were analysed using a 4-parameter logistic equation in GraphPad Prism.
Sensitisation is determined by the enhancement in IC50 of SN38 by the addition of the Chk-1 kinase inhibitor. In the protocol described above, the IC50 for SN-38 is determined the presence of varying doses of the Chk-1 inhibitor. The fold shift represents a decrease in IC50 for SN-38 at a dose of Chk-1 inhibitor that has no effect by itself. […]

The subject of series [2] is Calu 6. Description: Potentiation assay with DNA damaging agents in Calu 6 cells. In kind it is cell-based. The note with it: Calu 6 human lung adenocarcinoma, Example 4 at 8 μM. The protocol:
as §1, §2, §3, §4, §5, §6, §7
(§8) Sensitisation is determined by the enhancement in IC50 of SN38 by the addition of the Chk-1 kinase inhibitor. In the protocol described above, the IC50 for SN-38 is determined the presence of varying doses of the Chk-1 inhibitor. The fold shift represents a decrease in IC50 for SN-38 at a dose of Chk-1 inhibitor that has no effect by itself.
(§9) Using the general protocol set out in Example 67, the compound of Example 4 was tested in potentiation assays against a variety of cell lines in combination with several different DNA damaging anti-cancer agents.

Series [3] relates to HT29 cells. Put plainly: Sensitisation of HT29 cells to SN38 (Alamar blue cell growth). The note with it: HT29 cells. In kind it is cell-based, human. For orientation: The colour change of resazurin is a common sign of viable cells or microbes.
The subject of series [4] is SW620. Description: Potentiation assay with DNA damaging agents in SW620 cells. In kind it is cell-based. As to conditions: SW620 human colon adenocarcinoma. As for the experimental part:
as §1, §2, §3, §4, §5, §6, §7, §8, §9

The target in series [5] is Chk-1 kinase (Homo sapiens (Human), UniProt O14757). Put plainly: Chk-1 kinase inhibiting activity (33P-ATP filter assay, CHKtide substrate). The series is classed as biochemical.
Chk-1 kinase, sequence (O14757 whole entry): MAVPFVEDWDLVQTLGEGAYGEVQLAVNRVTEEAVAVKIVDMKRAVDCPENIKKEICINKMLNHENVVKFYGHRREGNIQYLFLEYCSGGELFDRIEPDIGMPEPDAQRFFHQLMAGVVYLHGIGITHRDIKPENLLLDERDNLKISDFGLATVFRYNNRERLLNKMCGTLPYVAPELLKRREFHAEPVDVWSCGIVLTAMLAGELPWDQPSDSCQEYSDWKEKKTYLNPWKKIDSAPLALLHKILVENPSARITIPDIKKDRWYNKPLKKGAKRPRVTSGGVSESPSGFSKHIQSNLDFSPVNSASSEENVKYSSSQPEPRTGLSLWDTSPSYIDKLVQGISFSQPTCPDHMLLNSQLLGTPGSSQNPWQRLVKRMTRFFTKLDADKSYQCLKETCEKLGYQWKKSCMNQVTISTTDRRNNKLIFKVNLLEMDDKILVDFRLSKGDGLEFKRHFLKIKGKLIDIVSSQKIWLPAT
Series [6] has as its system MV4-11 cells. Put plainly: Inhibition of cell growth in MV4-11 cells (Alamar blue). The series is classed as cell-based. As to conditions: Homo sapiens, 72 h incubation. The protocol:
(§10) Studies were carried out to test the effect of compounds on the inhibition of cell growth in MOLM-13 and MV4-11 cells.
as §1
(§11) (a) Cells were seeded in 96-well plates at cell densities of 2500/well (MOLM-13) and 10,000/well (MV4-11). Cells were then incubated overnight prior to addition of compound or vehicle control.
(§12) (b) Test compounds were prepared from 10 mM DMSO stocks to give a final concentration range of 10 μM, 3 μM, 1 μM, 0.3 μM, 0.1 μM, […], […] and vehicle control. The DMSO content was constant at 0.1%.
(§13) (c) Test compounds were incubated with the cells for 72 h at 37° C. 5% CO2 in a humidified atmosphere.
(§14) (d) Alamar blue 10% (v/v) was then added and incubated for a further 4 h, and fluorescent product detected using the BMG FLUOstar plate reader.
(§15) (e) Media only background values were subtracted and the data analysed using a 4-parameter logistic equation in GraphPad Prism.
(§16) From the results obtained by following the above protocol, the IC50 values against MOLM-13 and MV4-11 cells of the compounds of Examples 20, 21, 22, 25, 33, 35, 37, 38, 44, 48, 49, 50, 51, 53, 54 and 55 were determined.

In series [7] the test system is MOLM-13 cells. Put plainly: Inhibition of cell growth in MOLM-13 cells (Alamar blue). In kind it is cell-based. As to conditions: Homo sapiens, 72 h incubation. The protocol:
as §10, §1, §11, §12, §13, §14, §15, §16

[8] abbreviates: Chk-1 kinase, Table 3, read-out: IC50.
[9] abbreviates: ranges given, read-out: IC50 values against Chk-1 kinase.

Structures can show the parent of a compound that is named as a salt. Where two headings read alike, the source gives them in different places. Bounds are passed on as bounds.

As a reminder, the IC50 is the concentration at which inhibition is half-maximal. Regarding `N#Cc1cnc(NC(=O)Nc2ccc(CCNCc3ccc(F)cc3)c(Cl)c2)cn1` [Example 4, 1-{3-Chloro-4-[2-(4-fluoro-benzylamino)-ethyl]-phenyl}-3-(5-cyano-pyrazin-2-yl)-urea], the Potentiation factor amounted to 18 in series [1]; 3.7 in series [2] (SN-38); 7.6 in series [2] (etoposide); 6.1 in series [2] (gemcitabine); 16.4 in series [4] (SN-38, Example 4 at 4 μM); 2.6 in series [4] (etoposide, Example 4 at 1 μM). The Potentiation factor in series [4] (gemcitabine, Example 4 at 2 μM) is listed as 2.5. The “fold shift in the IC50 value of SN38” value in series [3] (test compound at 1.25 μM) is reported as “three”. Also, the IC50 in series [5] (setting [8]) was 15 nM; in series [5] (setting [9]), 10 to 100 nM.
Consider `COc1cccc(CNCCc2cc(OC)c(NC(=O)Nc3cnc(C#N)cn3)cc2Cl)c1` [Example 48, 1-{5-Chloro-2-methoxy-4-[2-(3-methoxy-benzylamino)-ethyl]-phenyl}-3-(5-cyano-pyrazin-2-yl)-urea hydrochloride], for which the IC50 is 190 nM in series [6], 100 nM in series [7], 0.47 nM in series [5] (setting [8]) and under 10 nM in series [5] (setting [9]). The “fold shift in the IC50 value of SN38” value is “two” in series [3] (test compound at 1 μM) and “greater than ten” in series [3] (test compound at 3 μM).
Turning to `COc1ccc(CNCCc2cc(OC)c(NC(=O)Nc3cnc(C#N)cn3)cc2Cl)cc1` [Example 49, 1-{5-Chloro-2-methoxy-4-[2-(4-methoxy-benzylamino)-ethyl]-phenyl}-3-(5-cyano-pyrazin-2-yl)-urea hydrochloride], the IC50 was 120 nM in series [6], 60 nM in series [7], 0.28 nM in series [5] (setting [8]) and under 10 nM in series [5] (setting [9]). The “fold shift in the IC50 value of SN38” value in series [3] (test compound at 1 μM) was “two”; in series [3] (test compound at 3 μM), “greater than ten”.
As for `COc1cc(CCNCc2ccc(N3CCN(C)CC3)cc2)c(Cl)cc1NC(=O)Nc1cnc(C#N)cn1` [Example 50, 1-(5-Chloro-2-methoxy-4-{2-[4-(4-methyl-piperazin-1-yl)-benzylamino]-ethyl}-phenyl)-3-(5-cyano-pyrazin-2-yl)-urea hydrochloride], the half-maximal inhibitory concentration (IC50) in series [6] is 310 nM; in series [7], 70 nM; in series [5] (setting [8]), 0.45 nM; in series [5] (setting [9]), under 10 nM. Further, the “fold shift in the IC50 value of SN38” value in series [3] (test compound at 1 μM) is “two”.

The record behind these values is patent publication US8716287B2, “Pharmaceutical compounds” (Sentinel Oncology Limited, priority 2010, dated 2014).
